Reference: US8691184B2, “Bcl-2/Bcl-xL inhibitors and therapeutic methods using the same” (The Regents of the University of Michigan, priority 2011, dated 2014)
Several values for one entry are separate records, joined by “and”; a condition that tells them apart may be missing. Equal values may be shown once. Read-outs that look alike come from different tables or passages of the source.

Assays:
Mcl-1 = Mcl-1 (Homo sapiens, UniProt Q07820); assay: FP-based binding assay, Mcl-1; settings: for IC50: Table 4, FP-based assay, read-out: Binding Affinities Mcl-1 IC50 ± SD
RS4;11 cells = assay: Cell growth assay (WST-8), RS4;11; assay type: cell-based; settings: Homo sapiens, RS4-11, 96 h; Table 4, 4 days; read-out: Cell Growth Inhibition (IC50 ± SD, nM) RS4;11
Procedure: (§1) RS4;11 and H146 cells were seeded in 96-well cell culture plates at a density of 10,000 cells/well with serially diluted compounds and incubated at 37° C. in an atmosphere of 95% air and 5% CO2 for 4 days. Cell viability was determined using the WST-8 (2-(2-methoxy-4-nitrophenyl)-3-(4-nitrophenyl)-5-(2,4-disulfophenyl)-2H-tetrazolium, monosodium salt) based Cell Counting-8 Kit (Dojindo Molecular Technologies, Inc., Rockville, Md.) according to the manufacture's instruction. Briefly, WST-8 was added to each well at a final concentration of 10% (v/v), and then the plates were incubated at 37° C. for 1˜2 hours for color development. The absorbance was measured at 450 nm using a SPECTRAmax PLUS plate reader (Molecular Devices, Sunnyvale, Calif.). The half maximal inhibitory concentration (IC50) was calculated using the GraphPad Prism 5 software (GraphPad Software, La Jolla, Calif.).

H146 cells = assay: Cell growth assay (WST-8), H146; assay type: cell-based; settings: Homo sapiens, NCI-H146, 96 h; Table 4, 4 days; read-out: Cell Growth Inhibition (IC50 ± SD, nM) H146
Procedure: as §1

[1] = system: ML-2 acute myeloid leukemia (AML) cell line; assay: Cell growth assay (WST-8), ML-2; assay type: cell-based; settings: Table 4; read-out: Cell Growth Inhibition (IC50 ± SD, nM) ML-2
Bcl-2 = Bcl-2 (Homo sapiens, UniProt P10415); assay: FP-based binding assay, Bcl-2
Bcl-xL = Bcl-xL (Homo sapiens, UniProt Q07817); assay: FP-based binding assay, Bcl-xL; settings: for Ki: Binding Affinities Bcl-xL Ki ± SD (nM), Table 4, * Ki is an estimate, compound more potent than the tracer
[2] = Toxicity (maximum tolerated dose) in SCID mice; assay type: in vivo
Excerpt: These experiments established the maximum tolerated doses (MTD).

[3] = read-out: Binding Affinities Bcl-xL IC50 ± SD, Table 4, FP-based assay

Chain of Mcl-1 (Q07820 whole entry, species assumed): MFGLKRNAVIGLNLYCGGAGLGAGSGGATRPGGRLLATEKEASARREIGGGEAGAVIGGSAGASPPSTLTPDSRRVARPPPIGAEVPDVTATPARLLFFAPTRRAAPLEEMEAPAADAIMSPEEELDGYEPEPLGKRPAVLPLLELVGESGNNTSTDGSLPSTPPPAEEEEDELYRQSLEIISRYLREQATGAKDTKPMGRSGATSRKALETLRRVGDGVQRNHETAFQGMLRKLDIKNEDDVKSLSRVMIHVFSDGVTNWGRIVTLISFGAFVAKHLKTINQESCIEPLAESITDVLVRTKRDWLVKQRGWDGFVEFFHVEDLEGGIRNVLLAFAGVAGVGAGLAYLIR
Chain of Bcl-2 (P10415 whole entry): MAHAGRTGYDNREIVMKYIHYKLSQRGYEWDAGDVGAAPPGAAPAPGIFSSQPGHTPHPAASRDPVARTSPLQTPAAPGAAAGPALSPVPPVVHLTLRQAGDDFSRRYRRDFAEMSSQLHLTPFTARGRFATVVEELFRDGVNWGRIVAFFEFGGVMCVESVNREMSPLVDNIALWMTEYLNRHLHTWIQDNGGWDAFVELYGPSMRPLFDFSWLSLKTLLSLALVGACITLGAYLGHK
Chain of Bcl-xL (Q07817 whole entry): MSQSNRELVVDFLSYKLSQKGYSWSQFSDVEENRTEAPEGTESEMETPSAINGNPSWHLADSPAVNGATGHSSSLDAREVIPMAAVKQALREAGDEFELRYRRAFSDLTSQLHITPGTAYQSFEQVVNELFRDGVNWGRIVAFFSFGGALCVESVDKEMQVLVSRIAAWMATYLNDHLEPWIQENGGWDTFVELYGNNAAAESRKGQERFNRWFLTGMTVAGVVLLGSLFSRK

Compound | IC50 (Mcl-1) [nM] | IC50 (RS4;11 cells) [nM] | IC50 (H146 cells) [nM] | IC50 [1] [nM] | IC50 (Bcl-2) [nM] | Ki (Bcl-2) [nM] | Ki (Bcl-xL) | IC50 (Bcl-xL; [3]) [nM] | IC50 (Bcl-xL) [nM] | IC50 (Bcl-2; read-out: Binding Affinities Bcl-2 IC50 ± SD, Table 4, FP-based assay) [nM] | Ki (Bcl-2; read-out: Binding Affinities Bcl-2 Ki ± SD, Table 4, * Ki is an estimate, compound more potent than the tracer) [nM] | Weight loss at higher dose ([2]; SCID mice, 50 mg/kg) | Kd (Mcl-1; saturation FP, 2 nM probe, increasing protein, read-out: Kd of fluorescent probe to Mcl-1) [nM] | Weight loss or other signs of toxicity ([2]; female SCID mice, intravenously, daily, 5-times a week for 2 weeks, 25 mg/kg)
Cc1c(C(=O)NS(C)(=O)=O)c(-c2cccc(N3CCN(c4ccc(NS(=O)(=O)c5ccc(N[C@H](CCN(C)C)CSc6ccccc6)c([N+](=O)[O-])c5)cc4)CC3)c2)c(-c2ccc(Cl)cc2)n1C [Compound 133] | > 10000 | 87 ± 19 | 38 ± 22 | 160 ± 53 | 1 ± 0.2 | < 1 | 1.3 ± 0.3 nM | 5 ± 1 | – | – | – | caused weight loss | – | –
Flu-BID: "Homemade fluorescein labeled" "BID (79-99)" peptide, fluorescent probe "in FP assays for" Mcl-1 [reference compound] | – | – | – | – | – | – | – | – | – | – | – | – | 6.8 ± 1.5 | –
CNC(=O)c1c(-c2cccc(N3CCN(c4ccc(NS(=O)(=O)c5ccc(N[C@H](CCN6CCOCC6)CSc6ccccc6)c([N+](=O)[O-])c5)cc4)CC3)c2)c(-c2ccc(Cl)cc2)n(C)c1C [Compound 124] | > 10000 | 89 ± 30 | 178 ± 65 | 382 ± 138 | 14 ± 2 | 3 ± 0.6 | 1 ± 0.2 nM | – | 5 ± 1 | – | – | – | – | –
CN(C)CC[C@@H](CSc1ccccc1)Nc1ccc(S(=O)(=O)Nc2ccc(N3CCN(c4cccc(-c5ccnn5-c5ccc(Cl)cc5)c4)CC3)cc2)cc1[N+](=O)[O-] [Compound 130] | – | – | – | – | – | – | – | – | – | – | – | – | – | no or minimal weight loss or other signs of toxicity

The next lines start with results.

IC50 (Mcl-1) [nM] | IC50 (RS4;11 cells) [nM] | IC50 (H146 cells) [nM] | IC50 [1] [nM] | IC50 (Bcl-2) [nM] | Ki (Bcl-2) [nM] | Ki (Bcl-xL) | IC50 (Bcl-xL; [3]) [nM] | IC50 (Bcl-xL) [nM] | IC50 (Bcl-2; read-out: Binding Affinities Bcl-2 IC50 ± SD, Table 4, FP-based assay) [nM] | Ki (Bcl-2; read-out: Binding Affinities Bcl-2 Ki ± SD, Table 4, * Ki is an estimate, compound more potent than the tracer) [nM] | Compound | Weight loss at higher dose ([2]; SCID mice, 50 mg/kg) | Kd (Mcl-1; saturation FP, 2 nM probe, increasing protein, read-out: Kd of fluorescent probe to Mcl-1) [nM] | Weight loss or other signs of toxicity ([2]; female SCID mice, intravenously, daily, 5-times a week for 2 weeks, 25 mg/kg)
> 10000 | 26 ± 4 | 87 ± 60 | 124 ± 62 | 1 ± 0.1 | < 1 | 1.6 ± 1 nM | 6 ± 4 | – | – | – | Cc1c(C(=O)O)c(-c2cccc(N3CCN(c4ccc(NS(=O)(=O)c5ccc(N[C@H](CCN(C)C)CSc6ccccc6)c([N+](=O)[O-])c5)cc4)CC3)c2)c(-c2ccc(Cl)cc2)n1C [Compound 178, (R)-5-(4-chlorophenyl)-4-(3-(4-(4-(4-((4-(dimethylamino)-1-(phenylthio)butan-2-yl)amino)-3-nitrophenylsulfonamido)phenyl)piperazin-1-yl)phenyl)-1,2-dimethyl-1H-pyrrole-3-carboxylic acid] | – | – | –
> 10000 | 493 ± 64 | 430 ± 207 | 1090 ± 562 | 14 ± 3 | 3.4 ± 0.6 | 1.6 ± 0.8 nM | – | 6 ± 3 | – | – | Cc1c(C(=O)O)c(-c2cccc(N3CCN(c4ccc(NS(=O)(=O)c5ccc(N[C@H](CCN6CCOCC6)CSc6ccccc6)c(S(=O)(=O)C(F)(F)F)c5)cc4)CC3)c2)c(-c2ccc(Cl)cc2)n1C [Compound 186, (R)-5-(4-chlorophenyl)-1,2-dimethyl-4-(3-(4-(4-(4-((4-morpholino-1-(phenylthio)butan-2-yl)amino)-3-((trifluoromethyl)sulfonyl)phenylsulfonamido)phenyl)piperazin-1-yl)phenyl)-1H-pyrrole-3-carboxylic acid] | – | – | –
> 10000 | 99 ± 28 | 181 ± 61 | 225 ± 49 | 2 ± 1 | < 1 | 1.3 ± 0.6 nM | – | 5 ± 2 | – | – | Cc1c(C(=O)O)c(-c2cccc(N3CCN(c4ccc(NS(=O)(=O)c5ccc(N[C@H](CCN6CCOCC6)CSc6ccccc6)c([N+](=O)[O-])c5)cc4)CC3)c2)c(-c2ccc(Cl)cc2)n1C [Compound 187, (R)-5-(4-chlorophenyl)-1,2-dimethyl-4-(3-(4-(4-(4-((4-morpholino-1-(phenylthio)butan-2-yl)amino)-3-nitrophenylsulfonamido)phenyl)piperazin-1-yl)phenyl)-1H-pyrrole-3-carboxylic acid] | – | – | –
> 5000 | – | – | – | – | – | 3 nM and < 1 nM | – | 3 ± 0.4 | – | – | Cc1cc(-c2cccc(N3CCN(c4ccc(NS(=O)(=O)c5ccc(N[C@H](CCN(C)C)CSc6ccccc6)c([N+](=O)[O-])c5)cc4)CC3)c2)c(-c2ccc(Cl)cc2)n1C [Compound 168, (R)—N-(4-(4-(3-(2-(4-chlorophenyl)-1,5-dimethyl-1H-pyrrol-3-yl)phenyl)piperazin-1-yl)phenyl)-4-((4-(dimethylamino)-1-(phenylthio)butan-2-yl)amino)-3-nitrobenzenesulfonamide] | – | – | –
> 10000 | 81 ± 7 | 177 ± 73 | 550 ± 204 | 2.2 ± 1.6 | < 1 | 1.3 ± 1 nM | – | 5 ± 4 | – | – | Cc1c(C(=O)O)c(-c2cccc(N3CCN(c4ccc(NS(=O)(=O)c5ccc(N[C@H](CCN(C)C)CSc6ccccc6)c(S(=O)(=O)C(F)(F)F)c5)cc4)CC3)c2)c(-c2ccc(Cl)cc2)n1C [Compound 185, (R)-5-(4-chlorophenyl)-4-(3-(4-(4-(4-((4-(dimethylamino)-1-(phenylthio)butan-2-yl)amino)-3-((trifluoromethyl)sulfonyl)phenylsulfonamido)phenyl)piperazin-1-yl)phenyl)-1,2-dimethyl-1H-pyrrole-3-carboxylic acid] | – | – | –
> 10000 | 74 ± 44 | 36 ± 26 | 215 ± 52 | – | – | 1.6 ± 0.8 nM | 6 ± 3 | – | 5 ± 1 | 1.1 ± 0.2 | CNC(=O)c1c(-c2cccc(N3CCN(c4ccc(NS(=O)(=O)c5ccc(N[C@H](CCN(C)C)CSc6ccccc6)c([N+](=O)[O-])c5)cc4)CC3)c2)c(-c2ccc(Cl)cc2)n(C)c1C [Compound 125] | – | – | –
